One assay is filed under the species Mus musculus. Nature of the assay: Antagonism by the selective kappa-antagonist nor-binaltorphimine (nor-BNl) in mouse vas deferens(MVD) preparations. The format is functional.
In assay [1] the target is T1, Kappa-type opioid receptor (Cavia porcellus, UniProt P41144). Kind of assay: Compound was evaluated for kappa opioid receptor mediated agonistic effect in electrically stimulated guinea-pig ileum. It counts as functional, tissue-based.
A further assay addresses Mu-type opioid receptor (Cavia porcellus, UniProt P97266). Nature of the assay: Compound was evaluated for binding affinity against [3H]- DAMGO labeled mu opioid receptor in guinea-pig brain homogenate. The format is tissue-based.
Assay [2] has as its target T1, Kappa-type opioid receptor. Kind of assay: Compound was evaluated for binding affinity against [3H]- U-69593 labeled kappa1 opioid receptor in guinea-pig brain homogenate. The format is tissue-based.
Assay [3] addresses T2, Kappa-type opioid receptor (Mus musculus, UniProt P33534). Kind of assay: Compound was evaluated for kappa opioid receptor mediated agonistic effect in mouse vas deferens(MVD) preparations. The format is functional.
Assay [4] has as its target T1, Kappa-type opioid receptor. Kind of assay: Compound was evaluated for binding affinity against [3H]- bremazocine labeled kappa2 opioid receptor in guinea-pig brain homogenate. It counts as tissue-based.
Assay [5] is filed under the species Cavia porcellus. Kind of assay: Antagonism by the selective kappa-antagonist nor-binaltorphimine (nor-BNl) in electrically stimulated guinea-pig ileum. It counts as functional.
Assay [6] has as its target T2, Kappa-type opioid receptor. Nature of the assay: Compound was evaluated for kappa opioid receptor mediated agonistic effect in mouse vas deferens(MVD) preparations; Not an agonist. It counts as functional.
Assay [7] is filed under the species Cavia porcellus. Nature of the assay: Antagonism by the selective kappa-antagonist nor-binaltorphimine (nor-BNl) in electrically stimulated guinea-pig ileum; No inhibition. The format is functional.

Structures are written as SMILES. Activity calls are given as the source filed them. The calls are words filed in the database; no cut-off is given here.

Chain of Mu-type opioid receptor (P97266 whole entry): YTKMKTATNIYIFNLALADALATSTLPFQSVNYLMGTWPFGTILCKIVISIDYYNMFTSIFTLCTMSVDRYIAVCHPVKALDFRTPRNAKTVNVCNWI
T2 sequence (P33534 whole entry): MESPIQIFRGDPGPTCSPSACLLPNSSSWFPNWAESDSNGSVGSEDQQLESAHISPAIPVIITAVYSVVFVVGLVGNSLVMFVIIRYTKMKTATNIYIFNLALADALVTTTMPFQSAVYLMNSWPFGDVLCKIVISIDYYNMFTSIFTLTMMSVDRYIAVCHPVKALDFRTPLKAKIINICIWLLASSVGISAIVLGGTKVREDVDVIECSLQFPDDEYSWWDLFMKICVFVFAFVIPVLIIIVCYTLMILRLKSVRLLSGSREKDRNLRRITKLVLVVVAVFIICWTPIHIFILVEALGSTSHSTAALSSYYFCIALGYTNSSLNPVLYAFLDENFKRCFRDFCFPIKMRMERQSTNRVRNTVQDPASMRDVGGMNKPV
T1 sequence (P41144 whole entry): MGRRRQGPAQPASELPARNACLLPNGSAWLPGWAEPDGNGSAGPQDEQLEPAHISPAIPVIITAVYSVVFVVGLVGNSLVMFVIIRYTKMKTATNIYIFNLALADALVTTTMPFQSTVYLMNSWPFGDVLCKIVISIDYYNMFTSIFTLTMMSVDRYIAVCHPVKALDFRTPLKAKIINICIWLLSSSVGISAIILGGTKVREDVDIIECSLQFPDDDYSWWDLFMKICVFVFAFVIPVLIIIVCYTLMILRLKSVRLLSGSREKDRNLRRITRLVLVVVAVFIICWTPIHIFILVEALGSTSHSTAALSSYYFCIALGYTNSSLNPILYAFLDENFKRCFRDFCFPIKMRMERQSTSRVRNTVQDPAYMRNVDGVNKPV

As for `O=C(/C=C/c1ccccc1)N[C@@H]1CC[C@@]2(O)[C@H]3Cc4ccc(O)c5c4[C@@]2(CCN3CC2CC2)[C@H]1O5`, the Ke is recorded as 5.1 nM in the assay filed under Mus musculus and 0.5 nM in the assay filed under Cavia porcellus [5]. The 50% inhibitory concentration (IC50) (as a rule, the concentration needed to halve the response being measured) in assay [1] came out at 0.4 nM; in assay [3] it was 0.0056 µM. The figures for the Ki (on Mu-type opioid receptor; in assay [2]; in assay [4]) were 0.07 nM, 0.2 nM and 12.8 nM, respectively.
With `Cc1ccc(/C=C/C(=O)N[C@@H]2CC[C@@]3(O)[C@H]4Cc5ccc(O)c6c5C3(CCN4CC3CC3)[C@H]2O6)cc1`, the IC50 in assay [1] was 12.6 nM; in assay [3] it was 17.1 µM. Besides, the Ki – broadly, the equilibrium dissociation constant of an inhibitor or competing ligand from its target – on Mu-type opioid receptor was determined as 0.23 nM; in assay [2] it was 0.6 nM; in [4] it was 171 nM. The Ke in the assay listed under Cavia porcellus [5] turned out to be 0.2 nM.
Turning to `O=C(/C=C/c1ccc(Cl)cc1)N[C@@H]1CC[C@@]2(O)[C@H]3Cc4ccc(O)c5c4C2(CCN3CC2CC2)[C@H]1O5`, the half-maximal inhibitory concentration (IC50) was 2.2 nM in assay [1] and “Not Active” in assay [6]. Besides, the Ki at Mu-type opioid receptor came out at 0.1 nM; in [2] it was 0.2 nM; in assay [4], 48.3 nM. The Ke in the assay filed under Cavia porcellus [5] amounted to 0.3 nM.
In the case of `O=C(/C=C/c1ccc([N+](=O)[O-])cc1)N[C@@H]1CC[C@@]2(O)[C@H]3Cc4ccc(O)c5c4C2(CCN3CC2CC2)[C@H]1O5`, the 50% inhibitory concentration (IC50) was 13.4 nM in assay [1] and “Not Active” in [6]. The Ki at Mu-type opioid receptor worked out at 0.2 nM; in assay [2], 0.8 nM; in [4], 30.5 nM. The Ke entry in the assay listed under Cavia porcellus [7] is “inactive”.

The values are drawn from ChEMBL document CHEMBL1153667, “6N-Cinnamoyl--naltrexamine and its p-nitro derivative. High efficacy -opioid agonists with weak antagonist actions” (Bioorg Med Chem Lett, 1996).
